From patent US10196417B2, “Baicalin magnesium compound and its preparation method and application” (CHENGDE MEDICAL UNIVERSITY, priority 2016, dated 2019) come the findings set out here.

In brackets after ≈: the same amount, converted by molar mass. Marks after values point to notes of the source that are not given here.

For data set [1], the system named is mice with acute liver injury induced by D-galactose. Description: Protection against liver injury (D-galactose-induced acute liver injury). The class given is in vivo. Conditions: intragastric, 10 mg/kg baicalin or equivalent, 5 days, D-galactose 0.5 g/kg i.p. on day 4. On the procedure:
40 healthy mice were randomly divided into 4 groups, a normal group, a model group, a baicalin group and a baicalin magnesium group. Mice in the baicalin group were administrated with baicalin at a dose of 10 mg/kg, and mice in the baicalin magnesium group were administrated with baicalin magnesium at a dose equivalent to 10 mg/kg of baicalin. Mice in the normal group and the model group were intragastrically administrated with the same volume of normal saline for 5 days. On the fourth day, mice in the model group and the administration groups were intraperitoneally injected with 0.5 g/kg of D-galactose, and mice in the normal group were intraperitoneally injected with the same volume of normal saline. The activities of ALT, AST, SOD and GSH-Px in the serum and the content of MDA were detected. Variance analysis was performed by SPSS-19.0 statistical software.

For data set [2], the system named is Human liver cancer HepG2 cells. As to the kind of experiment: Anti-tumor activity: apoptosis of HepG2 cells by flow cytometry. Format: cell-based. Conditions: 48 hours. On the procedure: Human liver cancer HepG2 cells were prepared and then cultured in an incubator containing 5% of CO2 at 37° C. using a DMEN culture medium containing 10% of fetal bovine serum, penicillin (100 μmol·L^−1) and streptomycin (1 mg·mL^−1). HepG2 cells in logarithmic phase were diluted with RPMI-1640 culture medium containing 10% of fetal bovine serum to a concentration of 1×10^4 per mL; then inoculated into a 96-well plate at 100 μL per well; and then cultured in an incubator having a relative humidity of 90% and 5% of CO2 at 37° C. The culture medium was discarded after the HepG2 cells were cultured for 24 hours. The culture medium containing baicalin and baicalin magnesium (equivalent to the concentration of baicalin (5 μg/mL, 10 μg/mL and 20 μg/mL)) were added in wells respectively with each concentration in four parallel wells. And at the same time, wells having culture medium without cells were used as a blank control group, and wells having cells without drug were used as a negative control group. The groups were continuously cultured for 48 hours to collect the cells. The cells were washed with PBS solution 2 times, and detected with a flow cytometer by FACS for parameter acquisition and data analysis.
(In flow cytometry, cells or beads pass a laser one at a time.)

Data set [3] can be described thus: Water solubility at 37° C. (equilibrium solubility method). Format: physicochemical. Conditions: for solubility: 37 °C, thermodynamic from solid. How it is done:
The solubility of the baicalin and the solubility of the baicalin magnesium in water at 37° C. were measured by a conventional solubility measurement method.

For data set [4], the system named is mice with cerebral ischemia. Description: Learning and memory function in mice with cerebral ischemia (water maze test). Format: in vivo. Conditions: i.p. 12.5 mg/kg baicalin or equivalent for 12 days after carotid clipping 20 min. On the procedure:
80 healthy mice were randomly divided into 4 groups each having 20 mice, a model group, a sham-operation group, a baicalin group and a baicalin magnesium group. For the model group, mice were intraperitoneally injected with 1% of pentobarbital sodium for anesthesia, and then the left and right common carotid arteries were exposed and separated. The left and right arteries were immediately clipped with a vessel clamp for 20 minutes. The vessel clamp then were released; arteries were sutured; and the mice were put back in the cage for breeding. For the sham-operation group, the left and right common carotid arteries were exposed by the same method as above but without clipping. The left and right arteries were sutured, and the mice were put back in the cage for breeding. For the baicalin group, the operation was the same as that for the model group, and on the second day after the operation the mice were intraperitoneally injected with 12.5 mg/kg of baicalin for successive 12 days. For the baicalin magnesium group, the operation was the same as that for the model group, and on the second day after the operation the mice were intraperitoneally injected with baicalin magnesium (at a dose equivalent to 12.5 mg/kg of baicalin) for successive 12 days. The mice in the sham-operation group and the model group were administrated with the same volume of normal saline. Water Maze Test: a circular water tank for test was 120 cm in diameter and 60 cm in height; a cylindrical platform was 10 cm in diameter and 40 cm in height; and an interior of the circular water tank was black. A camera connected to a display was provided to record the movement of mice. During the test, the water depth was 12 cm, and the water temperature was (25±2) ° C. All space signs around the maze remained unchanged throughout the test. Water Maze Test for Memory: on the day before the beginning of the test, each of mice were familiar with the water environment in the maze for 2 minutes. The mice were randomly placed in water close to walls of maze from four different quadrants (North, West, South and East, in one period of time), and the time from the mice entering water to climbing on the platform was recorded as an escape latency. […] The mice were continuously trained for 15 days at a frequency of two times of training per day. Each group of animals was subjected to a water maze test in turn. The path on the first day had two blind ends; the path on the second day had three blind ends; and the path on the third day, the fourth day and the fifth day had four blind ends. The mice were placed in water toward the walls, and the time from the mice entering water to arriving at the platform (latency) and the number of entering the blind ends were recorded. […]

Data set [5] deals with acetic acid-induced pain in mice. As to the kind of experiment: Analgesia: acetic acid-induced writhing. The class given is in vivo. Conditions: 0.067 g/kg (baicalin equivalent) intragastric once per day 7 days; for Analgesia %: vs blank control; for Number of writhing: writhing within 15 minutes after 0.6% acetic acid i.p. How it is done: 40 mice, 20-22 g in weight, were randomly divided into 4 groups each having 10 mice, a baicalin (0.067 g/kg) group, a baicalin magnesium (equivalent to 0.067 g/kg of baicalin) group, a blank control group (administrated with normal saline), and an aspirin positive control group (0.15 g/kg). The mice were intragastrically administrated once per day for successive 7 days. After 30 minutes of final administration, the mice were intraperitoneally injected with 0.6% acetic acid saline solution at a dose of 0.2 mL/10 g; the number of writhing responses in the mice within 15 minutes was counted. Analgesia % was calculated as follows: Analgesia %=[(average number of writhing responses of the blank control group−average number of writhing responses of the drug administration group)/average number of writhing responses of the blank control group]×100%. Single-factor variance analysis was performed on data by the SPSS19.0 statistical software, and P<0.05 was of statistical significance.
Background: In writhing tests, fewer writhes than in controls are read as antinociception.

[6] abbreviates: HepG2, 5 μg/mL (baicalin equivalent).
The mark [7] stands for this setting: HepG2, 10 μg/mL (baicalin equivalent).
Where [8] appears, read: HepG2, 20 μg/mL (baicalin equivalent).

For orientation: solubility means the concentration that dissolves in the medium under given conditions. Regarding `O=C(O)C1O[C@@H](Oc2cc3oc(-c4ccccc4)cc(=O)c3c(O)c2O)C(O)[C@@H](O)[C@@H]1O` (stereo partly drawn) [Baicalin Magnesium, baicalin magnesium], in data set [1], the “ALT (serum)” value is 165.1 ± 8.7*^Δ U/L, the “AST (serum)” value is listed as 139.8 ± 13.7*^Δ U/L, the “GSH-Px (serum)” value is listed as 11.8 ± 0.5*^Δ U/L and the “MDA (serum)” value is 2.1 ± 0.3*^Δ nmol/L. Also, in data set [1], the “SOD (serum)” value worked out at 48.2 ± 2.9 U/L. Besides, in data set [2] (setting [6]), the Apoptosis % amounted to 11.67 ± 0.65 %. In data set [2] (setting [7]), the Apoptosis % is given as 23.67 ± 5.21 %. For the same compound, the Apoptosis % in data set [2] (setting [8]) is on record as 33.12 ± 1.58*^Δ %. Besides, the “Water solubility relative to the solubility of the baicalin” value in data set [3] (37° C.) is 2225 times. The compound further had a solubility in data set [3] of 129 mg/mL (≈ 289 mM). In addition, in data set [4], the “Escape Latency” value was 26.54 ± 8.34*^Δ s and the “Number of Errors” value is reported as 3.82 ± 2.12*^Δ. In data set [5], the Analgesia % is reported as 60.6*^Δ % and the Number of writhing is given as 10.43 ± 3.56*^Δ.

In the case of `O=C(O)[C@H]1O[C@@H](Oc2cc3oc(-c4ccccc4)cc(=O)c3c(O)c2O)[C@H](O)[C@@H](O)[C@@H]1O` [Baicalin], in data set [1], the “ALT (serum)” value was determined as 191.4 ± 19.4 U/L, the “AST (serum)” value is recorded as 168.5 ± 11.9 U/L, the “GSH-Px (serum)” value is on record as 9.8 ± 0.9 U/L and the “MDA (serum)” value was 3.1 ± 0.4 nmol/L. The “SOD (serum)” value in data set [1] is reported as 45.2 ± 2.9 U/L. The Apoptosis % in data set [2] (setting [6]) came to 9.57 ± 0.56 %. Further, in data set [2] (setting [7]), the Apoptosis % amounted to 21.45 ± 1.67 %. For the same compound, the Apoptosis % in data set [2] (setting [8]) is listed as 30.67 ± 3.45 %. Besides, the solubility in data set [3] is 0.058 mg/mL (≈ 0.13 mM). In addition, in data set [4], the “Escape Latency” value is given as 38.88 ± 11.99 s and the “Number of Errors” value turned out to be 4.56 ± 3.78. Moreover, in data set [5], the Analgesia % is given as 33.7* % and the Number of writhing is recorded as 17.54 ± 4.44.
